Assay results: patent US11524950B2, “Treatment of immune-related and inflammatory diseases” (Celgene Corporation, priority 2012, dated 2022)
Like-named read-outs stand apart in the source and are kept apart here.

Tests used:
CD19+ B cells = test: B cell differentiation assay: CD20/CD38 phenotyping by flow cytometry; assay type: cell-based, human; settings: for CD20−CD38++ plasmablasts/plasma cells, % / CD20+CD38− activated B cells, % / CD20+CD38+ intermediated cells, %: 3 donors; for plasmablast population (CD20-CD38+): day 7, DMSO control 30.4%
Description: Differentiated B cells (see section 8.2.3) were harvested, counted, and aliquoted at about 1×10^6 cells or less per 4 mL tube. The cells were washed 1× with stain buffer. Next, the cells then were blocked with 10% human serum/PBS for 20-30 minutes. Following blocking, the cells were centrifuged for 5 minutes at 1200 rpm and supernatants discarded. In the 100 μL of remaining buffer, 20 μL of various BD Pharmigen flow antibodies were added according to experimental design. The cells were stained for 20-30 minutes at 4° C. Then the cells were washed 2× with stain buffer and supernatants discarded. Next, 500 μL of stain buffer or PBS was added to the tubes. The samples were immediately analyzed or put at 4° C. overnight. Cells were stained with mouse anti-human CD20 and CD38, CD19 and CD27, or respective isotype controls. All samples were analyzed using a FACSCanto flow cytometer, FACSDiva analysis software (BD Bioscience), and FlowJo Analysis software.
(§1) Immunophenotyping For Flow Cytometric Analysis: Cells were stained using multicolor direct immunofluorescence stain for flow cytometric analysis. Surface staining was performed before cell fixation and permeabilization. Cells (50 μl; 1×10^6 cells/ml in washing buffer, 2% FBS with 0.1% NaN3 in PBS) were used for each staining. The cells were stained with isotype control mAb ([…]) and multicolor FITC-conjugated anti-CD20 mAb and PE-conjugated anti-CD38 mAb, or PerCP-Cy5.5 conjugated anti-CD44 mAb, PE-conjugated anti-CD83 mAb were used for day 4 activated B cells (CD20+CD38-cells), and day 4 PBs and day 7 PBs (CD20-CD38+), and other staining, analyzed by flow cytometry as per manufacturer's instructions. The intracellular staining of transcription factor proteins (BCL-6, IRF-4, BLIMP-1, PAX-5 and XBP-1) and IgJ was performed according to the manufacturer's recommendations.

CD83 = CD83 expression in B cell differentiation culture (flow cytometry); assay type: cell-based, human
Description: as §1, with “recommendations. Flow cytometric analysis was performed with a FACSCanto using FACSDiva 6 (BD Biosciences). For data analysis, Flowjo (Tree Star) software was used.” for “recommendations.”
Using the same B cells in vitro differentiation system, the activity of the test compound on CD44 and CD83 expression in B cell differentiation was further investigated. Multicolor FITC-conjugated anti-CD20 mAb, PerCP Cy5.5-conjugated anti-CD44 mAb and PE-conjugated anti-CD83 mAb are used for day 4 and day 7 cells. The effect of the test compound was evaluated from 3 separate experiments representative of 3 donors.

IgJ = test: Ig J chain intracellular staining in B cell differentiation culture; assay type: cell-based, human
Description: as §1, with “recommendations. Flow cytometric analysis was performed with a FACSCanto using FACSDiva 6 (BD Biosciences). For data analysis, Flowjo (Tree Star) software was used.” for “recommendations.”
High level IgJ chain expression in rheumatoid arthritis (RA) patients predicts lack of response to rituximab.

H929 MM cell lines = test: Cell proliferation in lenalidomide-sensitive and resistant H929 MM cells (7-AAD); assay type: cell-based; settings: Homo sapiens, NCI-H929, 120 h, 5 days, read-out: IC50 for inhibition of proliferation
Description: CRBN ubiquitination was measured in HEK293T cells, which were transfected with an amino-terminal His-biotin-tagged CRBN construct, then preincubated with compounds for one hour followed by treatment with the MG132 proteasome inhibitor (to arrest degradation of ubiquitinated proteins). Cells were lysed and processed to measure CRBN ubiquitination by SDS-PAGE and immunoblot analysis using an anti-ubiquitin antibody. Cell proliferation studies were conducted in enalidomide-sensitive and refractory multiple myeloma cells. Lenalidomide-resistant or sensitive H929 MM cell lines were treated with Compound IA for 5 days, and then cell proliferation and viability were assessed by 7-aminoactinomycin D (“7-ADD”) staining. T-cell costimulation was measured in purified primary human T cells stimulated using immobilized anti-CD3 antibody in cell culture for 2 days, and cytokine secretion was measured by ELISA.

O=C1CC[C@H](N2Cc3c(OCc4ccc(CN5CCOCC5)cc4)cccc3C2=O)C(=O)N1 [Test compound, (S)-3-[4-(4-morphlin-4-ylmethylbenzyloxy)-1-oxo-1,3-dihydro-isoindo-2-yl]piperidine-2,6-dione]
percentage of CD20+CD38- activated B cells (CD19+ B cells): increased | percentage of CD20-CD38+ plasmablasts (CD19+ B cells): dose-dependently reduced | percentage of large size cells (gate p2) (CD19+ B cells; Day 4, 2 nM, DMSO 35.5%): 31.2% | CD20−CD38++ plasmablasts/plasma cells, % (CD19+ B cells; Day 4, 20 nM, DMSO 25.9 ± 2.4): 4.8 ± 2.3% | CD20−CD38++ plasmablasts/plasma cells, % (CD19+ B cells; Day 4, 20 nM, DMSO 25.9 ± 2.4, listed as test compound): 4.8% | CD20+CD38− activated B cells, % (CD19+ B cells; Day 4, 20 nM, DMSO 42.1 ± 1.5): 57.9 ± 11.5% | CD20+CD38− activated B cells, % (CD19+ B cells; Day 4, 20 nM, DMSO 42.1 ± 1.5, listed as test compound): 57.9% | percentage of large size cells (gate p2) (CD19+ B cells; Day 4, 20 nM, DMSO 35.5%): 23.1% | percentage of large size cells (gate p2) (CD19+ B cells; Day 4, 200 nM, DMSO 35.5%): 20.4% | CD20+CD38+ intermediated cells, % (CD19+ B cells; Day 4, DMSO 14.7 ± 3.1): 18.3 ± 5.5% | percentage of large size cells (gate p2) (CD19+ B cells; Day 7, 2 nM, DMSO 34.9%): 34.9% | CD20+CD38− activated B cells, % (CD19+ B cells; Day 7, 20 nM, DMSO 12.5 ± 5.7): 50.5 ± 8.6% | CD20+CD38− activated B cells, % (CD19+ B cells; Day 7, 20 nM, DMSO 12.5 ± 5.7, listed as test compound): 50.5% | CD20−CD38++ plasmablasts/plasma cells, % (CD19+ B cells; Day 7, 20 nM, DMSO 54.8 ± 5.0): 9.7 ± 5.4% | CD20−CD38++ plasmablasts/plasma cells, % (CD19+ B cells; Day 7, 20 nM, DMSO 54.8 ± 5.0, listed as test compound): 9.7% | percentage of large size cells (gate p2) (CD19+ B cells; Day 7, 20 nM, DMSO 34.9%): 19.9% | percentage of large size cells (gate p2) (CD19+ B cells; Day 7, 200 nM, DMSO 34.9%): 11.94% | CD20+CD38+ intermediated cells, % (CD19+ B cells; Day 7, DMSO 22.8 ± 5.1): 23 ± 7.7% | plasmablast population (CD20-CD38+) (CD19+ B cells; 2 nM): 27.3% | plasmablast population (CD20-CD38+) (CD19+ B cells; 20 nM): 2.1% | plasmablast population (CD20-CD38+) (CD19+ B cells; 200 nM): 0.4% | large size cell population (gate p2) (CD19+ B cells; normal B cell differentiation assay): dose-dependently depleted | total CD83+ cell population (CD83): significantly increased | percentage of CD83+ cells (CD83; Day 4, 2 nM, DMSO 13.4%±2.4%): 24.1% | percentage of CD83+ cells (CD83; Day 4, 20 nM, DMSO 13.4%±2.4%): 40.2% | percentage of CD83+ cells (CD83; Day 4, 200 nM, DMSO 13.4%±2.4%): 49.5% | percentage of CD83+ cells (CD83; Day 7, 2 nM, DMSO […]±3.3): 16.3% | percentage of CD83+ cells (CD83; Day 7, 20 nM, DMSO […]±3.3): 36.1% | percentage of CD83+ cells (CD83; Day 7, 200 nM, DMSO […]±3.3): 51.9% | MFI of IgJ within the positive cells (IgJ): decreased | number of IgJ-positive cells (IgJ; Day 4, 20 nM, DMSO 13.1%±1.5%): 8.4% | number of IgJ-positive cells (IgJ; Day 4, 200 nM, DMSO 13.1%±1.5%): 5.4% | Ig J chain expression (IgJ; Day 4 B cell differentiation cultures, three donors): dose-dependently and significantly reduced | number of IgJ-positive cells (IgJ; Day 7, 20 nM, DMSO 14.4%±4.3): 13.2% | number of IgJ-positive cells (IgJ; Day 7, 200 nM, DMSO 14.4%±4.3): 7.2% | IC50 (H929 MM cell lines; DMSO-treated subclone): 40 nM | IC50 (H929 MM cell lines; lenalidomide resistant subclones): 510 to 1580 nM | IC50 (H929 MM cell lines; parental H929 cell line): 10 nM
